Assay results from US4024277A, “Phosphoro-aminosulfenyl derivatives of benzofuran carbamates” (priority 1975, dated 1977).

How the values were obtained:
twospotted spider mite [1] = test: Ovicidal activity against the twospotted spider mite; format: in vivo, Tetranychus urticae Koch; conditions: Tetranychus urticae, eggs, 7 to 10 days, read-out: % Kill (ovicidal)
Description: d. Ovicidal Activity Against the Twospotted Spider Mite
In this test, Pinto bean seedlings are infested with female twospotted spider mites; about 3-4 hours are allowed for egg deposition. Plants are then dipped in TEPP (tetraethylpyrophosphate-commercial emulsifiable concentrate (EC)) solution containing 936 ppm of active ingredient. TEPP kills motile forms on the leaf and promptly degrades without effecting the egg stage. Two to three hours after TEPP treatment the plants are again dipped -- this time into a candidate insecticide solution. The test plants are maintained for 7 to 10 days. Termination of exposure is determined by the time required to attain complete hatch in the untreated check.

German cockroaches [2] = test: Level II topical test, German cockroaches; format: in vivo, Blattella germanica (Linnaeus); conditions: GC (male), one microgram topically per insect; for mortality at 0.001 mg: Blattella germanica, topical, read-out: % Kill; for % Knockdown: 30 minutes
Description: (§1) e. Insecticidal Activity Against House Flies and German Cockroaches
In a Level II test the compounds of this invention were tested for insecticidal activity against female house flies (resistant) and male German cockroaches. Ten insects were anesthetized with carbon dioxide and placed in a container for about 2 hours, during which time the insects recovered to normal activity. The container confining the insects is fitted with a plunger which is used to force the insects against a nylon mesh at one end of the container. One microliter of an acetone solution containing one microgram of the candidate insecticide was applied topically to each insect. The plunger was withdrawn and the insects were allowed to move freely about the container. Knockdown counts were recorded 10 minutes after treatment of house flies and 30 minutes after treatment of cockroaches.

twospotted spider mite [3] = test: Seven-day residual insecticidal activity, twospotted spider mite; format: in vivo, Tetranychus urticae Koch; conditions: Tetranychus urticae, 48-hour exposure, read-out: % Kill, Twospotted Spider Mite
Excerpt: (§2) b. Seven-Day Residual Insecticidal Activity
(§3) In this test, a candidate insecticide, in solution, is applied to uninfested plants or containers by dipping or spraying. A seven-day holding period is necessary before infestation. A 48-hour exposure period is observed before evaluation of the tests. The insect species used in this type of test are the same as those listed under initial activity.

plum curculio = test: Seven-day residual insecticidal activity, plum curculio; format: in vivo, Conotrachelus nenuphar (Herbst); conditions: Conotrachelus nenuphar, 48-hour exposure, read-out: % Kill, Plum Curculio
Excerpt: as §2, §3

German cockroaches [4] = test: Level I immersion test, German cockroaches; format: in vivo, Blattella germanica (Linnaeus); conditions: GC (male), 5 mg/milliliter; for mortality at 5000 µg/mL: Blattella germanica, 18-24 hours, read-out: % Kill; for % Knockdown: 30 minutes after immersion
Description: as §1
(§4) Compounds of this invention were tested in a Level I test at 5 mg. of active compounds/milliliter of a solution of 40% acetone -- 60% water.
(§5) In this test a group of ten house flies (Musca domestica Linnaeus) were completely immersed in 25 ml. of the insecticidal test solution. After 10 seconds of immersion, the test solution is removed. The house flies are then transferred to holding cages lines with paper toweling. In the case of the house flies, the knockdown counts were recorded 10 minutes after termination of the immersion. The percent kill was recorded after 18-24 hours.
The same Level I test technique was employed using male German cockroaches [Blattella germanica (Linnaeus)]. In this case, the knockdown counts were recorded 30 minutes after the termination of the immersion.

confused flour beetle [5] = test: Seven-day residual insecticidal activity, confused flour beetle; format: in vivo, Tribolium confusum Jacquelin duVal; conditions: Tribolium confusum, 48-hour exposure, read-out: % Kill, Confused Flour Beetle
Excerpt: as §2, §3

twospotted spider mite [6] = test: Initial insecticidal activity, twospotted spider mite; format: in vivo, Tetranychus urticae Koch; conditions: Tetranychus urticae, 48-hour exposure, read-out: % Kill, Twospotted Spider Mite
Excerpt: (§6) a. Initial Insecticidal Activity
(§7) In this test, a candidate insecticide, in solution, is applied to either infested or uninfested plants or containers by spraying or dipping. (The preferred test procedure varies with insect species. The dipping method is better than the spraying method, and vice versa, for certain species of insects. Also some species are better adapted to the test by infesting after the chemical treatment rather than before.) Once the tests have been established, a 48-hour exposure period is observed before reading the tests. Insect species included in these tests are Mexican bean beetle (Epilachna varivestis Mulsant), pea aphid [Acyrthosiphon pisum (Harris)], southern armyworm [Spodoptera eridania (Cramer)], twospotted spider mite (Tetranychus urticae Koch), large milkweed bug [Oncopeltus fasciatus (Dallas)], plum curculio [Conotrachelus nenuphar (Herbst)], confused flour beetle (Tribolium confusum Jacquelin duVal) and granary weevil [Sitophilus granarius (Linnaeus)]. Test results are set forth in Table I. A control sample, comprising the solution without the candidate insecticide, is also included.

confused flour beetle [7] = test: Initial insecticidal activity, confused flour beetle; format: in vivo, Tribolium confusum Jacquelin duVal; conditions: Tribolium confusum, 48-hour exposure, read-out: % Kill, Confused Flour Beetle
Excerpt: as §6, §7

Mexican bean beetle [8] = test: Initial insecticidal activity, Mexican bean beetle; format: in vivo, Epilachna varivestis Mulsant; conditions: Epilachna varivestis, 48-hour exposure, read-out: % Kill, Mexican Bean Beetle
Excerpt: as §6, §7

twospotted spider mite [9] = test: Systemic insecticidal activity (soil/water), twospotted spider mite; format: in vivo, Tetranychus urticae Koch; conditions: Tetranychus urticae, 48-hour exposure, read-out: % Kill, Twospotted Spider Mite
Description: c. Systemic Insecticidal Acitivity (Soil/Water)
In this test, a candidate insecticide, in solution, is added to the soil of either uninfested pinto bean seedlings (Phaseolus vulgaris) or uninfested broad bean seedlings (Vicia faba var. Windsor). The plant species used depend on the insect species in the test. Usually, a 72-hour translocation period before infestation is required, followed by a 48-hour exposure period, before evaluation of the tests. The insect species used in the systemic tests are Mexican bean beetle, southern armyworm, pea aphid, and twospotted spider mite.

southern armyworm [10] = test: Initial insecticidal activity, southern armyworm; format: in vivo, Spodoptera eridania (Cramer); conditions: Spodoptera eridania, 48-hour exposure, read-out: % Kill, Southern Armyworm
Excerpt: as §6, §7

southern armyworm [11] = test: Seven-day residual insecticidal activity, southern armyworm; format: in vivo, Spodoptera eridania (Cramer); conditions: Spodoptera eridania, 48-hour exposure, read-out: % Kill, Southern Armyworm
Excerpt: as §2, §3

house flies = test: Level I immersion test, house flies; format: in vivo, Musca domestica Linnaeus; conditions: HF, 5 mg/milliliter; for % Knockdown: 10 minutes after immersion; for mortality at 5000 µg/mL: Musca domestica, after 18-24 hours, read-out: % Kill
Description: as §1, §4, §5

Mexican bean beetle [12] = test: Seven-day residual insecticidal activity, Mexican bean beetle; format: in vivo, Epilachna varivestis Mulsant; conditions: Epilachna varivestis, 48-hour exposure, read-out: % Kill, Mexican Bean Beetle
Excerpt: as §2, §3

SMILES	mortality at 156 ppm (twospotted spider mite [1])	mortality at 1250 ppm (twospotted spider mite [1])	mortality at 39 ppm (twospotted spider mite [3])	mortality at 156 ppm (twospotted spider mite [3])	mortality at 1250 ppm (twospotted spider mite [3])	mortality at 39 ppm (plum curculio)	mortality at 156 ppm (plum curculio)	mortality at 1250 ppm (plum curculio)	mortality at 5000 µg/mL (German cockroaches [4])	% Knockdown (German cockroaches [4])	mortality at 39 ppm (confused flour beetle [5])	mortality at 156 ppm (confused flour beetle [5])	mortality at 1250 ppm (confused flour beetle [5])	mortality at 39 ppm (twospotted spider mite [6])	mortality at 156 ppm (twospotted spider mite [6])	mortality at 1250 ppm (twospotted spider mite [6])	mortality at 39 ppm (confused flour beetle [7])	mortality at 156 ppm (confused flour beetle [7])	mortality at 1250 ppm (confused flour beetle [7])	mortality at 39 ppm (Mexican bean beetle [8])	also measured
CCCOP(=O)(OCCC)N(C)SN(C)C(=O)Oc1cccc2c1OC(C)(C)C2 [2(d), 2,3-dihydro-2,2-dimethyl-7-benzofuranyl [(N-di-n-propoxyphosphinyl) (N-methyl)aminosulfenyl][methyl]carbamate]	2%	80%	0%	0%	1%	0%	5%	86%	100%	100%	0%	2%	38%	39%	91%	100%	0%	2%	72%	100%	mortality at 0.001 mg (German cockroaches [2]): 10%; % Knockdown (German cockroaches [2]): 0%; mortality at 156 ppm (Mexican bean beetle [8]): 100%; mortality at 1250 ppm (Mexican bean beetle [8]): 100%; mortality at 10 ppm (twospotted spider mite [9]): 0%; mortality at 39 ppm (twospotted spider mite [9]): 2%; mortality at 156 ppm (twospotted spider mite [9]): 18%; mortality at 39 ppm (southern armyworm [10]): 0%; mortality at 156 ppm (southern armyworm [10]): 54%; mortality at 1250 ppm (southern armyworm [10]): 100%; mortality at 39 ppm (southern armyworm [11]): 0%; mortality at 156 ppm (southern armyworm [11]): 0%; mortality at 1250 ppm (southern armyworm [11]): 60%; % Knockdown (house flies): 100%; mortality at 5000 µg/mL (house flies): 100%; mortality at 39 ppm (Mexican bean beetle [12]): 50%; mortality at 156 ppm (Mexican bean beetle [12]): 76%; mortality at 1250 ppm (Mexican bean beetle [12]): 100%
CCCOP(=O)(OCCC)N(CCC)SN(C)C(=O)Oc1cccc2c1OC(C)(C)C2 [3(c)]	0%	70%	< 1%	0%	5%	5%	10%	95%	100%	100%	0%	0%	78%	32%	86%	100%	0%	2%	55%	100%	mortality at 0.001 mg (German cockroaches [2]): 0%; % Knockdown (German cockroaches [2]): 0%; mortality at 156 ppm (Mexican bean beetle [8]): 100%; mortality at 1250 ppm (Mexican bean beetle [8]): 100%; mortality at 10 ppm (twospotted spider mite [9]): < 1%; mortality at 39 ppm (twospotted spider mite [9]): < 1%; mortality at 156 ppm (twospotted spider mite [9]): 5%; mortality at 39 ppm (southern armyworm [10]): 0%; mortality at 156 ppm (southern armyworm [10]): 22%; mortality at 1250 ppm (southern armyworm [10]): 100%; mortality at 39 ppm (southern armyworm [11]): 0%; mortality at 156 ppm (southern armyworm [11]): 0%; mortality at 1250 ppm (southern armyworm [11]): 0%; % Knockdown (house flies): 100%; mortality at 5000 µg/mL (house flies): 100%; mortality at 39 ppm (Mexican bean beetle [12]): 28%; mortality at 156 ppm (Mexican bean beetle [12]): 92%; mortality at 1250 ppm (Mexican bean beetle [12]): 100%
CCN(SN(C)C(=O)Oc1cccc2c1OC(C)(C)C2)P(=O)(OC)OC [5(c), 2,3-dihydro-2,2-dimethyl-7-benzofuranyl [(N-dimethoxyphosphinyl) (N-ethyl)aminosulfenyl][methyl]carbamate]	0%	38%	2%	0%	2%	0%	0%	80%	100%	100%	0%	0%	0%	6%	47%	100%	0%	0%	78%	78%	mortality at 0.001 mg (German cockroaches [2]): 0%; % Knockdown (German cockroaches [2]): 0%; mortality at 156 ppm (Mexican bean beetle [8]): 100%; mortality at 1250 ppm (Mexican bean beetle [8]): 100%; mortality at 39 ppm (twospotted spider mite [9]): 7%; mortality at 156 ppm (twospotted spider mite [9]): 24%; mortality at 39 ppm (southern armyworm [10]): 0%; mortality at 156 ppm (southern armyworm [10]): 69%; mortality at 1250 ppm (southern armyworm [10]): 100%; mortality at 39 ppm (southern armyworm [11]): 0%; mortality at 156 ppm (southern armyworm [11]): 0%; mortality at 1250 ppm (southern armyworm [11]): 61%; % Knockdown (house flies): 100%; mortality at 5000 µg/mL (house flies): 100%; mortality at 39 ppm (Mexican bean beetle [12]): 6%; mortality at 156 ppm (Mexican bean beetle [12]): 70%; mortality at 1250 ppm (Mexican bean beetle [12]): 100%
CCCN(SN(C)C(=O)Oc1cccc2c1OC(C)(C)C2)P(=O)(Oc1ccccc1)Oc1ccccc1 [7(c)]	0%	0%	1%	0%	0%	5%	0%	0%	0%	0%	0%	0%	0%	1%	6%	5%	0%	0%	0%	95%	mortality at 156 ppm (Mexican bean beetle [8]): 94%; mortality at 1250 ppm (Mexican bean beetle [8]): 100%; mortality at 39 ppm (twospotted spider mite [9]): 4%; mortality at 156 ppm (twospotted spider mite [9]): 1%; mortality at 39 ppm (southern armyworm [10]): 0%; mortality at 156 ppm (southern armyworm [10]): 29%; mortality at 1250 ppm (southern armyworm [10]): 31%; mortality at 39 ppm (southern armyworm [11]): 0%; mortality at 156 ppm (southern armyworm [11]): 0%; mortality at 1250 ppm (southern armyworm [11]): 0%; % Knockdown (house flies): 40%; mortality at 5000 µg/mL (house flies): 0%; mortality at 39 ppm (Mexican bean beetle [12]): 20%; mortality at 156 ppm (Mexican bean beetle [12]): 89%; mortality at 1250 ppm (Mexican bean beetle [12]): 100%
